What was measured:
fibrin hydrogel = experiment: Stiffness (storage modulus) of fibrin gel by rheometer; details: for Storage Modulus Mean: fibrin gel
Protocol: (§1) To minimize sample evaporation at 37 °C, a tissue paper wet in HEPEs buffer (10 mM, pH 7.8) was placed inside the H-PTD chamber to increase the humidity. […] The cone and plate were treated with plasma for 5 min to increase the hydrophilicity of the metal surface.
Fibrin gel: Fibrinogen (Shanghai Laishi Xuezhipin Limited Company) was dissolved in PBS with a concentration of 22.2 mg mL^−1 overnight at room temperature with gentle shaking and aliquoted in protein low-binding tubes (45 µL per tube). […] Fifty microliters of thrombin (4 EU mL^−1 in PBS with 1.8 mM CaCl2) was added and pipetted up and down ten times. Then, it was transferred to the rheometer plate for measurement. […] For each condition, two independent experiments were performed (Fig. 1a and Supplementary Fig. 1).

[1] = test system: collagen hydrogel (Type I, rat-tail); experiment: Step-strain rheological measurement, self-healing of collagen hydrogel
Protocol: Another important feature of the dynamic ECMs is their self-healing property, which can be tested using a step-strain rheological measurement. A strong strain is applied to liquify the materials, and the recovery of storage modulus is followed (self-healing) (Fig. 1b). Collagen hydrogel can only partially recover its storage modulus after the first cycle. The rate and extent of recovery were unchanged over the following cycles.
as §1

## CypA: recombinant cyclophilin A, a PPIase, expressed in E. coli
Fibrin hydrogel; 1 µM CypA
  effect on storage modulus of fibrin hydrogel: remarkably enhanced
Fibrin hydrogel; 1 micromolar CypA, 3 min
  Storage Modulus Mean: 56.652 Pa
Fibrin hydrogel; 1 micromolar CypA, 3.5 min
  Storage Modulus Mean: 58.3965 Pa
Fibrin hydrogel; 1 micromolar CypA, 4 min
  Storage Modulus Mean: 59.006 Pa
Fibrin hydrogel; 1 micromolar CypA, 4.5 min
  Storage Modulus Mean: 60.5775 Pa
Fibrin hydrogel; 1 micromolar CypA, 5 min
  Storage Modulus Mean: 62.605 Pa
Fibrin hydrogel; 1 micromolar CypA, 6 min
  Storage Modulus Mean: 64.745 Pa
Fibrin hydrogel; 1 micromolar CypA, 6.5 min
  Storage Modulus Mean: 65.763 Pa
Fibrin hydrogel; 1 micromolar CypA, 7 min
  Storage Modulus Mean: 66.7405 Pa
Fibrin hydrogel; 1 micromolar CypA, 7.5 min
  Storage Modulus Mean: 67.652 Pa
Fibrin hydrogel; 1 micromolar CypA, 8 min
  Storage Modulus Mean: 68.8195 Pa
Fibrin hydrogel; 1 micromolar CypA, 8.5 min
  Storage Modulus Mean: 69.705 Pa
Fibrin hydrogel; 1 micromolar CypA, 9 min
  Storage Modulus Mean: 70.143 Pa
Fibrin hydrogel; 1 micromolar CypA, 9.5 min
  Storage Modulus Mean: 71.2125 Pa
Fibrin hydrogel; 1 micromolar CypA, 10 min
  Storage Modulus Mean: 72.402 Pa
Fibrin hydrogel; 1 micromolar CypA, 11 min
  Storage Modulus Mean: 74.113 Pa
Fibrin hydrogel; 1 micromolar CypA, 12 min
  Storage Modulus Mean: 75.428 Pa
Fibrin hydrogel; 1 micromolar CypA, 12.5 min
  Storage Modulus Mean: 75.9135 Pa
Fibrin hydrogel; 1 micromolar CypA, 13 min
  Storage Modulus Mean: 76.613 Pa
Fibrin hydrogel; 1 micromolar CypA, 14 min
  Storage Modulus Mean: 77.9915 Pa
Fibrin hydrogel; 1 micromolar CypA, 15 min
  Storage Modulus Mean: 78.877 Pa
Fibrin hydrogel; 3 micromolar CypA, 3 min
  Storage Modulus Mean: 56.9022 Pa
Fibrin hydrogel; 3 micromolar CypA, 3.5 min
  Storage Modulus Mean: 58.8285 Pa
Fibrin hydrogel; 3 micromolar CypA, 4 min
  Storage Modulus Mean: 60.4529 Pa
Fibrin hydrogel; 3 micromolar CypA, 5 min
  Storage Modulus Mean: 63.4816 Pa
Fibrin hydrogel; 3 micromolar CypA, 6 min
  Storage Modulus Mean: 65.1141 Pa
Fibrin hydrogel; 3 micromolar CypA, 6.5 min
  Storage Modulus Mean: 66.9921 Pa
Fibrin hydrogel; 3 micromolar CypA, 7 min
  Storage Modulus Mean: 68.0463 Pa
Fibrin hydrogel; 3 micromolar CypA, 7.5 min
  Storage Modulus Mean: 69.6441 Pa
Fibrin hydrogel; 3 micromolar CypA, 8 min
  Storage Modulus Mean: 70.5045 Pa
Fibrin hydrogel; 3 micromolar CypA, 8.5 min
  Storage Modulus Mean: 71.5921 Pa
Fibrin hydrogel; 3 micromolar CypA, 9 min
  Storage Modulus Mean: 72.9987 Pa
Fibrin hydrogel; 3 micromolar CypA, 9.5 min
  Storage Modulus Mean: 73.9279 Pa
Fibrin hydrogel; 3 micromolar CypA, 10 min
  Storage Modulus Mean: 75.4268 Pa
Fibrin hydrogel; 3 micromolar CypA, 11 min
  Storage Modulus Mean: 76.965 Pa
Fibrin hydrogel; 3 micromolar CypA, 12 min
  Storage Modulus Mean: 78.6581 Pa
Fibrin hydrogel; 3 micromolar CypA, 12.5 min
  Storage Modulus Mean: 79.6539 Pa
Fibrin hydrogel; 3 micromolar CypA, 13 min
  Storage Modulus Mean: 80.8472 Pa
Fibrin hydrogel; 3 micromolar CypA, 14 min
  Storage Modulus Mean: 81.859 Pa
Fibrin hydrogel; 3 micromolar CypA, 15 min
  Storage Modulus Mean: 84.0373 Pa
Fibrin hydrogel; 9 micromolar CypA, 3 min
  Storage Modulus Mean: 62.185 Pa
Fibrin hydrogel; 9 micromolar CypA, 3.5 min
  Storage Modulus Mean: 63.846 Pa
Fibrin hydrogel; 9 micromolar CypA, 4 min
  Storage Modulus Mean: 65.982 Pa
Fibrin hydrogel; 9 micromolar CypA, 4.5 min
  Storage Modulus Mean: 68.114 Pa
Fibrin hydrogel; 9 micromolar CypA, 5 min
  Storage Modulus Mean: 69.837 Pa
Fibrin hydrogel; 9 micromolar CypA, 6 min
  Storage Modulus Mean: 72.811 Pa
Fibrin hydrogel; 9 micromolar CypA, 6.5 min
  Storage Modulus Mean: 74.461 Pa
Fibrin hydrogel; 9 micromolar CypA, 7 min
  Storage Modulus Mean: 75.619 Pa
Fibrin hydrogel; 9 micromolar CypA, 7.5 min
  Storage Modulus Mean: 77.1405 Pa
Fibrin hydrogel; 9 micromolar CypA, 8 min
  Storage Modulus Mean: 78.5045 Pa
Fibrin hydrogel; 9 micromolar CypA, 8.5 min
  Storage Modulus Mean: 79.81 Pa
Fibrin hydrogel; 9 micromolar CypA, 9 min
  Storage Modulus Mean: 80.8145 Pa
Fibrin hydrogel; 9 micromolar CypA, 9.5 min
  Storage Modulus Mean: 82.609 Pa
Fibrin hydrogel; 9 micromolar CypA, 10 min
  Storage Modulus Mean: 83.584 Pa
Fibrin hydrogel; 9 micromolar CypA, 11 min
  Storage Modulus Mean: 86.0735 Pa
Fibrin hydrogel; 9 micromolar CypA, 12 min
  Storage Modulus Mean: 88.4775 Pa
Fibrin hydrogel; 9 micromolar CypA, 12.5 min
  Storage Modulus Mean: 89.3905 Pa
Fibrin hydrogel; 9 micromolar CypA, 13 min
  Storage Modulus Mean: 90.5025 Pa
Fibrin hydrogel; 9 micromolar CypA, 14 min
  Storage Modulus Mean: 91.758 Pa
Fibrin hydrogel; 9 micromolar CypA, 15 min
  Storage Modulus Mean: 94.897 Pa
Fibrin hydrogel; 9 micromolar CypA, 15.5 min
  Storage Modulus Mean: 96.242 Pa
Fibrin hydrogel; 20 micromolar CypA, 3 min
  Storage Modulus Mean: 48.845 Pa
Fibrin hydrogel; 20 micromolar CypA, 3.5 min
  Storage Modulus Mean: 49.5435 Pa
Fibrin hydrogel; 20 micromolar CypA, 4 min
  Storage Modulus Mean: 50.3955 Pa
Fibrin hydrogel; 20 micromolar CypA, 4.5 min
  Storage Modulus Mean: 50.963 Pa
Fibrin hydrogel; 20 micromolar CypA, 5 min
  Storage Modulus Mean: 51.714 Pa
Fibrin hydrogel; 20 micromolar CypA, 6 min
  Storage Modulus Mean: 52.522 Pa
Fibrin hydrogel; 20 micromolar CypA, 6.5 min
  Storage Modulus Mean: 53.309 Pa
Fibrin hydrogel; 20 micromolar CypA, 7 min
  Storage Modulus Mean: 53.9025 Pa
Fibrin hydrogel; 20 micromolar CypA, 7.5 min
  Storage Modulus Mean: 54.3695 Pa
Fibrin hydrogel; 20 micromolar CypA, 8 min
  Storage Modulus Mean: 54.713 Pa
Fibrin hydrogel; 20 micromolar CypA, 8.5 min
  Storage Modulus Mean: 55.308 Pa
Fibrin hydrogel; 20 micromolar CypA, 9 min
  Storage Modulus Mean: 55.0885 Pa
Fibrin hydrogel; 20 micromolar CypA, 9.5 min
  Storage Modulus Mean: 56.131 Pa
Fibrin hydrogel; 20 micromolar CypA, 10 min
  Storage Modulus Mean: 56.586 Pa
Fibrin hydrogel; 20 micromolar CypA, 11 min
  Storage Modulus Mean: 57.3845 Pa
Fibrin hydrogel; 20 micromolar CypA, 12 min
  Storage Modulus Mean: 58.3285 Pa
Fibrin hydrogel; 20 micromolar CypA, 12.5 min
  Storage Modulus Mean: 58.642 Pa
Fibrin hydrogel; 20 micromolar CypA, 14 min
  Storage Modulus Mean: 59.019 Pa
Fibrin hydrogel; 20 micromolar CypA, 15 min
  Storage Modulus Mean: 59.9075 Pa
Fibrin hydrogel; 20 micromolar CypA, 15.5 min
  Storage Modulus Mean: 60.0285 Pa
[1]
  stiffness and extent of recovery in the self-healing process of collagen hydrogel: remarkably enhanced
